Patent US11918666B2, “Topical formulations comprising strontium and methylsulfonylmethane (MSM) and methods of treatment” (NOON AESTHETICS M.R LTD., priority 2018, dated 2024)
Where two headings read alike, the source gives them in different places.

Columns and labels:
[1] = system: skin; details: rabbits
[2] = target: tyrosinase (Homo sapiens, UniProt P14679); details: higher than beta-arbutin; cited from earlier work
Chain of tyrosinase (P14679 19-529): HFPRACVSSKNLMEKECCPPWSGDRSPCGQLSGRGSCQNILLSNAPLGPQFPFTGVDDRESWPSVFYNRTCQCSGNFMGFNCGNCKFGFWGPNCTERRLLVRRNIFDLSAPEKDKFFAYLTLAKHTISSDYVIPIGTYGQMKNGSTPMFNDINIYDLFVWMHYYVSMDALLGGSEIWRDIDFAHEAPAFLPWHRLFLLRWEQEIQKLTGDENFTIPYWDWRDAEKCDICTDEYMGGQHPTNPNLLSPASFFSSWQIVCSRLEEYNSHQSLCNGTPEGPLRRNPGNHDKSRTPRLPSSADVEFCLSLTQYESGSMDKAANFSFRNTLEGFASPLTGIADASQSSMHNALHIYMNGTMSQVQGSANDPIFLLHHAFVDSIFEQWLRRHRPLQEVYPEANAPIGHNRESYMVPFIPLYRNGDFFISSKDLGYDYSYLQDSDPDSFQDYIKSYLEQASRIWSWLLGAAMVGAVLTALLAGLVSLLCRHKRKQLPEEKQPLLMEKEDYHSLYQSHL

Row | Compound | skin irritant effect ([1]; glycolic acid applied alone at 10% w/w) | skin irritant effect ([1]; glycolic acid applied alone at 30% or 40% w/w) | stability and efficiency relative to beta-arbutin [2] [times]
1 | O=C(O)CO [glycolic acid] | mild skin irritant effect | moderate skin irritant | 
2 | alpha-arbutin [alpha arbutin] |  |  | 50
